System: MDA-MB-231
Assay: Immunoblotting of apoptosis proteins
Format: cell-based
Excerpt: Apoptosis is a common cell death pathway for chemotherapeutics which can be characterized by distinct morphological features and biochemical mechanisms.[88,89] Apoptosis occurs normally in healthy cells to maintain a healthy population of cells during aging or development of tissues. Some transition metal-based drugs can trigger apoptosis due to […] of p53 dependant pathway (a tumour suppressor gene).[90,91] Populations of apoptotic cells can be determined by containing cells with Annexin V and PI.[92,93] Cells undergoing apoptosis contain ample amount of phosphatidylserine (PS) which can be bound by Annexin V. The Annexin is then labelled with FITC, a green fluorogenic dye which can be visualized by fluorescence activated cell sorting (FACS). […]
positive control. When ready for analysis, the media were removed and the wells washed with 5 mL of PBS. […] The cells were resuspended in 2 mL of fresh media, counted, and reconstituted to a concentration of 1 x 10^5 cells/mL. […]
Compound 2a was prepared as a stock in DMSO and added to the respective wells at the specified concentrations of 0.1, 1, and 10 µM and treated for 12 h. […] The samples were cooled and stored at −20 °C until ready for use. […] Immuno complexes were detected with the ECL detection reagent (BioRad) and analyzed using a BioRad imager with a chemiluminescence filter. […]

C[N+](C)=C1[S][Au-2]2([S]1)[c]1ccccc1Cc1cccc[n+]12.F[P-](F)(F)(F)(F)F (centres unmarked) [2a]
Cleaved PARP expression (immunoblot) (MDA-MB-231, 0.1, 1, 10 µM, 12 h): unaltered protein expression
Caspase 3 and cleaved caspase 3 expression (immunoblot) (MDA-MB-231, concentration dependent (0.1, 1, 10 µM, 12 h)): upregulated

— article PMC8162438, “Cancer cell-selective modulation of mitochondrial respiration and metabolism by potent organogold(III) dithiocarbamates” (Chemical Science, 2020)
